# Numbering of substitutions follows the chain as printed. Several values for one entry are separate records, joined by “and”; a condition that tells them apart may be missing. Identical values can stand only once. Entries after “also recorded” stand apart in the source; their conditions may differ. Like-named read-outs stand apart in the source and are kept apart here.
# Key:
# D57N-human RNR-α mutant [1] = target: T1, D57N-human RNR-α mutant (Homo sapiens, UniProt P23921, D57N); assay: Inhibition of D57N RNR-α reductase activity; assay type: biochemical; conditions: up to at least 10-fold above the Ki for wt
# T1 sequence (P23921 1-792 D57N): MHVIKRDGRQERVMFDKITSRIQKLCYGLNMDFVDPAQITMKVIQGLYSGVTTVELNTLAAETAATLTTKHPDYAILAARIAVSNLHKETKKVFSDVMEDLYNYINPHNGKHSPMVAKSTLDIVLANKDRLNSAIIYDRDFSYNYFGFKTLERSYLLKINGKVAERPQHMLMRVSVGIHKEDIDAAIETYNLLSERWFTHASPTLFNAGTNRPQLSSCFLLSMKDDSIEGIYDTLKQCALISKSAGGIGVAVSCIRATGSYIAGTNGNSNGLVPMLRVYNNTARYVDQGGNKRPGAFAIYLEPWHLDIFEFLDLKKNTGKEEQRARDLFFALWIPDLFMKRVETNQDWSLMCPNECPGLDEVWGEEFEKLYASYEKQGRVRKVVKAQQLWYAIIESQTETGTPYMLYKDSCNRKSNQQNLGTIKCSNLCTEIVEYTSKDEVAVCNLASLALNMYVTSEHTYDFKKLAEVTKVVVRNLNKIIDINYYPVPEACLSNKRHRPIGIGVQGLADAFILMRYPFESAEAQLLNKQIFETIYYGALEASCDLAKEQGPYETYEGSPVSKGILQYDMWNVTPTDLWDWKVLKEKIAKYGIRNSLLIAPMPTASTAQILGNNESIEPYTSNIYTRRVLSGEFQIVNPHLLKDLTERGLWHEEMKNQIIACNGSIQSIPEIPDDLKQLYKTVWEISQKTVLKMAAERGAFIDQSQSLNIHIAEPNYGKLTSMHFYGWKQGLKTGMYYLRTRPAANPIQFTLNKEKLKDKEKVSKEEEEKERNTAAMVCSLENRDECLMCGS
# RNR-α [2] = target: T2, RNR-α (Homo sapiens, UniProt P23921); assay: FRET-quenching assay reporting ligand-driven RNR-α oligomerization
# T2 sequence (P23921 1-792): T1 sequence (P23921 1-792 D57N) with N57D
# [3] = target: T3, mutant (D57N)-mouse(m)RNR-α (Mus musculus, UniProt P07742, D57N); assay type: cell-based; conditions: 3 h treatment; 5, 50, 300 μM ClF, ClA, FlUMP; D57N-mRNR-α 3T3 cells
# T3 sequence (P07742 1-792 D57N): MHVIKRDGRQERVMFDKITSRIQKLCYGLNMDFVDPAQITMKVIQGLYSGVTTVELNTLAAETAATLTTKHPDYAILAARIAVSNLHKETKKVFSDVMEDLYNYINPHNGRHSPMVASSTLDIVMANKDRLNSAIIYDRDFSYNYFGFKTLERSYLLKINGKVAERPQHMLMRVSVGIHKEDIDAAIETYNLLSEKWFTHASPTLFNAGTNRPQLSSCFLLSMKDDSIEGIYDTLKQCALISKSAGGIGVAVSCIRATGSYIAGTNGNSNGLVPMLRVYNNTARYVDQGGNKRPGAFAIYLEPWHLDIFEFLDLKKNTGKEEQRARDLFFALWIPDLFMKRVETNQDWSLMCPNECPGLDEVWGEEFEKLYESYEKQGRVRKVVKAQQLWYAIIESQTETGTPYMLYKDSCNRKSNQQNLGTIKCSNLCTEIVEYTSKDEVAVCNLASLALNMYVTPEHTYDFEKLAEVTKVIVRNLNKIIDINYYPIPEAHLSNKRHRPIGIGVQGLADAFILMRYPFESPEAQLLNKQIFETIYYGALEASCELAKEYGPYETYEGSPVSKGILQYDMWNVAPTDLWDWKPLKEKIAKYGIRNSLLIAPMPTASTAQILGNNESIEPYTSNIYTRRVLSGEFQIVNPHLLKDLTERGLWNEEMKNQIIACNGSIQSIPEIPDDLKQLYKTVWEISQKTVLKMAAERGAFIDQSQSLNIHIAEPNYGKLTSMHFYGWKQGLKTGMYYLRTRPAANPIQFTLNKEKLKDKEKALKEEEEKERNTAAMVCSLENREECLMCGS
# RNR-α [4] = target: T2, RNR-α; assay: Gel filtration analysis of RNR-α oligomeric state; conditions: for oligomeric state by gel filtration of α presaturated with dATP (S and A sites): running buffer without nucleotides
# [5] = test system: Flp-In 293 T-REx cells expressing D57N-α-Flag; assay: Proliferation inhibition assay
# wt-mouse-(m)RNR-α = target: T4, wt-mouse-(m)RNR-α (Mus musculus, UniProt P07742); assay type: cell-based; conditions: 3 h treatment; 5, 50, 300 μM ClF, ClA, FlUMP; wt-mRNR-α 3T3 cells
# T4 sequence (P07742 1-792): T3 sequence (P07742 1-792 D57N) with N57D
# [6] = test system: Flp-In 293 T-REx cells expressing RNR-α-Flag; assay: Proliferation inhibition assay
# wild type RNR-α = target: T5, wild type RNR-α (Homo sapiens, UniProt P23921); assay: Fluorescence anisotropy displacement of Texas Red-5-dATP from wild type RNR-α; conditions: for further decrease in FA after S site preblocked with saturating dTTP: RNR-α, T*-dATP, saturating ligand then added
# T5 sequence (P23921 1-792): T1 sequence (P23921 1-792 D57N) with N57D
# D57N RNR-α = target: T6, D57N RNR-α (Homo sapiens, UniProt P23921, D57N); assay: Fluorescence anisotropy displacement of Texas Red-5-dATP from D57N RNR-α; assay type: binding; conditions: D57N RNR-α 6 μM, T*-dATP 1.2 μM
# T6 sequence (P23921 1-792 D57N): T1 sequence (P23921 1-792 D57N)
# E. coli RNR = conditions: cited from earlier work
# D57N-human RNR-α mutant [7] = target: T1, D57N-human RNR-α mutant; conditions: CDP as substrate; cited from earlier work
smiles,measurement,setting,value
Nc1nc(F)nc2c1ncn2[C@@H]1O[C@H](COP(=O)(O)OP(=O)(O)OP(=O)(O)O)[C@@H](O)[C@@H]1O [FlUTP],inhibition of D57N-α,D57N-human RNR-α mutant [1],unresponsive; also recorded: failed to inhibit
same,time to complete oligomerization (time-dependent FRET),RNR-α [2],less than 5 min
"Nc1ccn([C@@H]2O[C@H](CO)[C@@H](O)C2(F)F)c(=O)n1 [F2C, gemcitabine]",RNR reductase activity in D57N-α-expressing lines after drug treatment,[3],sensitive
Nc1nc(F)nc2c1ncn2[C@@H]1O[C@H](COP(=O)(O)OP(=O)(O)O)[C@@H](O)[C@@H]1O [FlUDP],oligomeric state of eluted α by gel filtration,RNR-α [4]; 20 μM FlUDP included in running buffer,exclusively α6
same,inhibition of D57N-α,D57N-human RNR-α mutant [1],did not inhibit; also recorded: neither of the diphosphates inhibited
same,time to complete oligomerization (time-dependent FRET),RNR-α [2],less than 5 min
"Nc1ccn([C@@H]2O[C@H](COP(=O)(O)OP(=O)(O)O)[C@@H](O)C2(F)F)c(=O)n1 [F2CDP, gemcitabine diphosphate]",inhibition of D57N-α,D57N-human RNR-α mutant [1],inhibits D57N-α as effectively as the wild type; also recorded: promoted inactivation of D57N-α as well as wt-α
"Nc1nc(Cl)nc2c1ncn2[C@H]1C[C@H](O)[C@@H](CO)O1 [ClA, cladribine]",protection against cytotoxicity upon tet induction relative to noninduced,[5],> 20 fold
same,RNR inhibition in cells (rate of [5-3H]-dCDP formation in lysate),wt-mouse-(m)RNR-α,potent RNR inhibition
same,effect of RNR-α overexpression on cytotoxicity relative to noninduced cells,[6],small effect on the EC50
same,RNR reductase activity in D57N-α-expressing lines after drug treatment,[3],not suppressed
Cc1cn([C@H]2C[C@H](O)[C@@H](COP(=O)(O)OP(=O)(O)OP(=O)(O)O)O2)c(=O)[nH]c1=O [dTTP],drop in FA on addition of S-site binder,"wild type RNR-α; RNR-α 6 μM, T*-dATP 1.2 μM, saturating ligand",49 ± 1% and ~ 50%
same,drop in FA,D57N RNR-α,39 ± 1%
Nc1nc(Cl)nc2c1ncn2[C@H]1C[C@H](O)[C@@H](COP(=O)(O)OP(=O)(O)OP(=O)(O)O)O1 [ClATP],further decrease in FA after S site preblocked with saturating dTTP,wild type RNR-α,20 ± 1% and ~ 20%
same,drop in FA on wild type protein compared with D57N,wild type RNR-α; ligand added in place of dTTP/dGTP,significantly higher drop in FA
same,inhibition of D57N-α,D57N-human RNR-α mutant [1],unresponsive; also recorded: failed to inhibit
same,decrease in FA relative to dTTP/dGTP (fold less),D57N RNR-α,~ 7 fold
Nc1nc(F)nc2c1ncn2[C@@H]1O[C@H](COP(=O)(O)O)[C@@H](O)[C@@H]1O [FlUMP],effect of D57N-α overexpression on cytotoxicity relative to noninduced cells,[5]; 48 h drug,no protection
same,RNR inhibition in cells (rate of [5-3H]-dCDP formation in lysate),wt-mouse-(m)RNR-α,potent RNR inhibition
same,effect of RNR-α overexpression on cytotoxicity relative to noninduced cells,[6]; 48 h drug,no protection
same,RNR reductase activity in D57N-α-expressing lines after drug treatment,[3],not suppressed
Nc1nc(Cl)nc2c1ncn2[C@@H]1O[C@H](COP(=O)(O)OP(=O)(O)OP(=O)(O)O)[C@@H](O)[C@@H]1F [ClFTP],inhibition of E. coli RNR,E. coli RNR,failed to inhibit
Nc1nc(Cl)nc2c1ncn2[C@H]1C[C@H](O)[C@@H](COP(=O)(O)OP(=O)(O)O)O1 [ClADP],oligomeric state by gel filtration of α presaturated with dATP (S and A sites),RNR-α [4],hexameric peak was observed
same,further decrease in FA after S site preblocked with saturating dTTP,wild type RNR-α,no statistically significant changes
same,inhibition of D57N-α,D57N-human RNR-α mutant [1],did not inhibit; also recorded: failed to inhibit; also recorded: neither of the diphosphates inhibited
same,time to complete oligomerization (time-dependent FRET),RNR-α [2],less than 5 min
Nc1ncnc2c1ncn2[C@H]1C[C@H](O)[C@@H](COP(=O)(O)OP(=O)(O)OP(=O)(O)O)O1 [dATP],oligomeric state by gel filtration of α presaturated with dATP (S and A sites),RNR-α [4],only elutes as lower-order species
same,reduced affinity at the A site of D57N relative to wt,D57N-human RNR-α mutant [7],~ 300 fold

# Source: article PMC4946967 (ACS chemical biology, 2016)
